Where no end group is shown, it is not given here.
Columns and labels:
[1] = tested on: ACE; set-up: method as in 2 sources, one per row (each row's own in cited_ref): ref [24] = [24]; PMID 32220144; doi:10.1111/1750-3841.15115; 24. Zheng Y. Wang X. Zhuang Y. Li Y. Shi P.Q. Tian H. Li X.T. Chen X. Isolation of novel ACE-inhibitory peptide from naked oat globulin hydrolysates in silico approach: Molecular docking, in vivo anti ||| ref [4],[35] = [4]; doi:10.1016/j.lwt.2022.114008; 4. Renjuan L. Xiuli Z. Liping S. Yongliang Z. Identification, in silico screening, and molecular docking of novel ACE inhibitory peptides isolated from the edible symbiot Boletus griseus-Hypomyces chr || [35]; doi:10.1016/j.lwt.2022.113196; 35. Wei G. Zhao Q. Wang D. Fan Y. Shi Y. Huang A. Novel ACE inhibitory, antioxidant and α-glucosidase inhibitory peptides identified from fermented rubing cheese through peptidomic and molecular docki; settings: literature comparison; ref [4],[35]; read-out: ACE inhibition IC50; cited from earlier work
[2] = molecular target: T1, ACE (Oryctolagus cuniculus, UniProt P12822); assay: ACE inhibition capacity (HHL substrate, hippuric acid at 228 nm); type: biochemical; settings: synthesized peptide; ACE 25 mU, HHL 8.3 mmol/L, 37 °C, 60 min, absorbance 228 nm; from regression of inhibition vs concentration; n at least 3; read-out: ACE-inhibitory activity (IC50)
T1 construct: purchased Sigma (St. Louis, MO, USA)
T1 sequence (P12822 34-1310): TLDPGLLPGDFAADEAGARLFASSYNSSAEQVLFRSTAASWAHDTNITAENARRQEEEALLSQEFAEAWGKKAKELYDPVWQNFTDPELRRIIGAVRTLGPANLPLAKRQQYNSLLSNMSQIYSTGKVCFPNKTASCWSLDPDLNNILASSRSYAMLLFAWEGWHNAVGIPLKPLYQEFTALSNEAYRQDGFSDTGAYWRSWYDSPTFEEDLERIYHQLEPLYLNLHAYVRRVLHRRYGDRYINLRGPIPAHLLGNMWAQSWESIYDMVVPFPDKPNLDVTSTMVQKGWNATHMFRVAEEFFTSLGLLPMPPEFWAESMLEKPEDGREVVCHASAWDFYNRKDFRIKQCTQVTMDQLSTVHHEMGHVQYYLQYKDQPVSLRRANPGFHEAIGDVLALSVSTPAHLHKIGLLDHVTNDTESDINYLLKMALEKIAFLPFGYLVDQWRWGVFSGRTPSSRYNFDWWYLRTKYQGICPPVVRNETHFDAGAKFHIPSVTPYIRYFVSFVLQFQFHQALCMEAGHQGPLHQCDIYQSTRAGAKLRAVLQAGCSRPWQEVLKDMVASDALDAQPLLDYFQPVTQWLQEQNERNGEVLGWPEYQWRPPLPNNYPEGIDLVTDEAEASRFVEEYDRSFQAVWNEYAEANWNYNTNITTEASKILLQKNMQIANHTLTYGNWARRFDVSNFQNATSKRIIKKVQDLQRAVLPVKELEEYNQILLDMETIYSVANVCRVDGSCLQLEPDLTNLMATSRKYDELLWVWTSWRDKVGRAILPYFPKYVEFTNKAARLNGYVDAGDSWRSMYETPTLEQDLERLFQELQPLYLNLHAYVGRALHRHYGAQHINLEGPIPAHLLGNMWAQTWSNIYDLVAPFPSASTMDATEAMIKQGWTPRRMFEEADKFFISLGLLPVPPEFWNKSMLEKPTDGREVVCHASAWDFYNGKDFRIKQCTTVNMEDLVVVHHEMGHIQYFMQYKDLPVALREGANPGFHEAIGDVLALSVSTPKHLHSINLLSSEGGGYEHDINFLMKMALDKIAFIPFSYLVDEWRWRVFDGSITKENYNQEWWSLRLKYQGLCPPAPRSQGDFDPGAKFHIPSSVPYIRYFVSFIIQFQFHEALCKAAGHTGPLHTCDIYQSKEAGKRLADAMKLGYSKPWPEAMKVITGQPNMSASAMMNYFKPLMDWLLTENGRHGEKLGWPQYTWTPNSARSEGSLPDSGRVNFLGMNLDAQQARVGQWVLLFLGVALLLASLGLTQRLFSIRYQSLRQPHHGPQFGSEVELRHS
Procedure: Briefly, ACE (25 mU) was pre-incubated at 37 °C for 10 min. Then, ACE (75 µL), 225 µL of HHL (8.3 mmol/L), and peptide solution (75 µL) were mixed and stirred at 75 r/min and 37 °C for 60 min [28]. The reaction was stopped through the addition of 0.375 mL of HCl (1 mol/L). Next, 2.1 mL of ethyl acetate was added to extract the produced hippuric acid. After centrifugation at 14,000× g for 150 s, 1 mL of the upper solution (ethyl acetate extraction) was transferred into a glass test tube and heated at 120 °C for 32 min. Then, deionized water (1 mL) was added and determined at 228 nm. The control group was subjected to the same procedures but without samples. The inhibition ability of the samples toward ACE was defined as the percentage of the difference in absorbance at 228 nm between the sample and control compared to the absorbance of the control at 228 nm. The concentration of peptides needed to inhibit half of ACE activity was defined as IC50.

[3] = Zn-chelating ability (4-(2-Pyridinazo)-resorcinol colorimetric method); type: physicochemical; settings: 350 μg sample, zinc sulfate 0.25 mmol/L, HEPES-KOH, DTT, 37 °C, 12 min; PAR method, 500 nm; reduction of zinc ions per mass of sample; mean ± SD, n at least 3
Procedure: NOBAH peptides (350 μg), 0.5 mL zinc sulfate solution (0.25 mmol/L), 0.5 mL DTT (8 mmol/L), 1 mL HEPES-KOH buffer (100 μmol/L), and 8 mL dH2O were mixed thoroughly. After stirring at 37 °C and 175 r/min for 12 min, 1 mL of reaction solution was sucked out and used for zinc concentration determination using the 4-(2-Pyridinazo)-resorcinol method. The standard regression curve of zinc concentration (x, μg/mL) with the absorbance at 500 nm (y) was y = 0.0901n(x) + 0.1012, R^2 = 0.9802 [27]. The zinc chelation rate of the sample was defined as the reduction of zinc ions in the reaction solution per mass of the sample (mg/g).
Amino acid sequence identification was conducted on a Q Exactive hybrid quadrupole orbitrap mass spectrometer (Thermo Fisher, Bremen, Germany) according to the description of Li et al.. Peak-Studio-7.5-De-Novo™ software (Bioinformatics Solutions, Inc., Waterloo, ON, Canada) was employed to analyze data from the mass spectrometer. The National Center for Biotechnology Information Database (Bethesda, MD, USA) was used for the verification of the obtained sequences. The PAR colorimetric method was employed to measure the Zn-chelating ability of the obtained sequences. Potential antihypertensive effects were predicted using the database AHTPDB [29]. […] Moreover, the physicochemical characteristics of the obtained peptides were analyzed with the database AHTPDB.

[4] = Zinc solubility of peptide-Zn complexes during simulated gastrointestinal digestion; settings: intestinal phase, from 120 to 240 min; PAR method

In the case of LFRPE, the IC50 [1] is listed as 11.3 µM.
GYHGH [GYHGH, Gly-Tyr-His-Gly-His] showed an IC50 [2] of 322 µM.
In the case of “QPHQPL [peptide identified in rubing cheese]”, the IC50 [1] is given as 464 µM.
With “GTTGGMGT [peptide identified in NOBAH-6-D]” the Zinc chelating capacity [3] was 3.36 ± 0.16 e mg/g.
With `O=C([O-])[C@H](O)[C@@H](O)[C@H](O)[C@H](O)CO.O=C([O-])[C@H](O)[C@@H](O)[C@H](O)[C@H](O)CO.[Zn+2]` [zinc gluconate, Zinc gluconate] the “Zinc solubility compared with zinc sulfate” value [4] was “higher zinc solubility than that of zinc sulfate”.
QYVPF [QYVPF, Gln-Tyr-Val-Pro-Phe] showed an IC50 [2] of 243 µM.
